# Calls of active or inactive are those of the source. The rule behind the calls is not given here.
# Target: T1, Peroxisome proliferator-activated receptor gamma (Homo sapiens, UniProt P37231)
# T1 sequence (P37231 whole entry): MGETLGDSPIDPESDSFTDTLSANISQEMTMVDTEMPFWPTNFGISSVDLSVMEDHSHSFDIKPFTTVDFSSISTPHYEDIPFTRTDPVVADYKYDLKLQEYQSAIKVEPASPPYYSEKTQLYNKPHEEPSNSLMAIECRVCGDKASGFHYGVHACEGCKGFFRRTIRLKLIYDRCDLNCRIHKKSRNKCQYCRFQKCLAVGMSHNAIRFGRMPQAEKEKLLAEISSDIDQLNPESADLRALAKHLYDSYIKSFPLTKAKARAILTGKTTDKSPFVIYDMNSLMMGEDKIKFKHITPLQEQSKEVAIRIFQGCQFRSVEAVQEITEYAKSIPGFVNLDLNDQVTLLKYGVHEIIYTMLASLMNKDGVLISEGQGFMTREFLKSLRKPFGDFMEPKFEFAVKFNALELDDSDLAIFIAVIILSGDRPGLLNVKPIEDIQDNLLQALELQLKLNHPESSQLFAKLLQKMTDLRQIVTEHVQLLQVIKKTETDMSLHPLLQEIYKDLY
# Assay: Transactivation of Gal4-fused human PPARgamma transfected in COS7 cells co-transfected with pGAL5-TK-pGL3 and pRennilla-CMV incubated for 39 hrs by dual luciferase reporter assay
# Assay type: cell-based
# Conditions: not given
row,Structure (SMILES),EC50
1,CCCc1nc2c(F)cccc2n1Cc1ccc(-c2ccccc2C(=O)O)cc1,8.66 µM
2,CCCc1nc2c(C(F)(F)F)cccc2n1Cc1ccc(-c2ccccc2C(=O)O)cc1,12.1 µM
3,CCCc1nc2c(C)cc(-c3nc4ccccc4n3C)cc2n1Cc1ccc(-c2ccccc2C(=O)O)cc1 [TELMISARTAN],4.28 µM
4,CCCc1nc2c(Cl)cccc2n1Cc1ccc(-c2ccccc2C(=O)O)cc1,8.67 µM
5,CCCc1nc2ccccc2n1Cc1ccc(-c2ccccc2C(=O)O)cc1,7.22 µM
6,CCCc1nc2c(C)cccc2n1Cc1ccc(-c2ccccc2C(=O)O)cc1,11.1 µM
7,CCCc1nc2c(Br)cccc2n1Cc1ccc(-c2ccccc2C(=O)O)cc1,8.25 µM

# Target: T2, Peroxisome proliferator-activated receptor gamma (Homo sapiens) (UniProt P37231)
# T2 sequence (whole entry): T1 sequence (P37231 whole entry)
# Assay: Transactivation of Gal4-fused human PPARgamma transfected in COS7 cells co-transfected with pGAL5-TK-pGL3 and pRennilla-CMV assessed as maximum intrinsic activation at 10 uM incubated for 39 hrs by dual luciferase reporter assay relative to pioglitazone
# Assay type: cell-based
# Conditions: not given
row,Structure (SMILES),Intrinsic activity
1,CCCc1nc2c(F)cccc2n1Cc1ccc(-c2ccccc2C(=O)O)cc1,44.2%
2,CCCc1nc2c(C(F)(F)F)cccc2n1Cc1ccc(-c2ccccc2C(=O)O)cc1,29.5%
3,CCCc1nc2c(OC)cccc2n1Cc1ccc(-c2ccccc2C(N)=O)cc1,13.3%
4,CCCc1nc2c(C)cccc2n1Cc1ccc(-c2ccccc2C(N)=O)cc1,19.6%
5,CCCc1nc2c(C)cc(-c3nc4ccccc4n3C)cc2n1Cc1ccc(-c2ccccc2C(=O)O)cc1 [TELMISARTAN],59.1%
6,CCCc1nc2c(Cl)cccc2n1Cc1ccc(-c2ccccc2C(=O)O)cc1,44%
7,CCCc1nc2ccccc2n1Cc1ccc(-c2ccccc2C(=O)O)cc1,58.5%
8,CCCc1nc2c(C)cccc2n1Cc1ccc(-c2ccccc2C(=O)O)cc1,54.3%
9,CCCc1nc2c(Br)cccc2n1Cc1ccc(-c2ccccc2C(=O)O)cc1,44.9%

# System: not listed separately
# Assay: Solubility of compound in water at >20 uM
# Assay type: physicochemical
# Conditions: buffer
row,Structure (SMILES),solubility
1,CCCc1nc2c(OC)cccc2n1Cc1ccc(-c2ccccc2C(N)=O)cc1,Insoluble
2,CCCc1nc2c(C)cccc2n1Cc1ccc(-c2ccccc2C(N)=O)cc1,Insoluble

# Target: T2, Peroxisome proliferator-activated receptor gamma (Homo sapiens)
# Assay: Transactivation of Gal4-fused human PPARgamma transfected in COS7 cells co-transfected with pGAL5-TK-pGL3 and pRennilla-CMV assessed as maximum intrinsic activation at 20 uM incubated for 39 hrs by dual luciferase reporter assay
# Assay type: cell-based
# Conditions: not given
row,Structure (SMILES),Intrinsic activity
1,CCCc1nc2c(OC)cccc2n1Cc1ccc(-c2ccccc2C(N)=O)cc1,inactive
2,CCCc1nc2c(C)cccc2n1Cc1ccc(-c2ccccc2C(N)=O)cc1,inactive
3,CCCc1nc2c(C)cc(-c3nc4ccccc4n3C)cc2n1Cc1ccc(-c2ccccc2C(=O)O)cc1 [TELMISARTAN],78%

# System: K562-IMA[r]
# Assay: Induction of sensitization to imatinib-induced cytotoxicity in imatinib-resistant human K562-IMA[r] cells assessed as induction of cell death at 10 uM after 72 hrs in presence of 1 uM imatinib by propidium iodide/Triton-X100 dye based FACS analysis
# Assay type: functional
# Conditions: not given
row,Structure (SMILES),Activity
1,CCCc1nc2c(F)cccc2n1Cc1ccc(-c2ccccc2C(=O)O)cc1,Active
2,CCCc1nc2c(C(F)(F)F)cccc2n1Cc1ccc(-c2ccccc2C(=O)O)cc1,Active
3,CCCc1nc2c(OC)cccc2n1Cc1ccc(-c2ccccc2C(N)=O)cc1,Active
4,CCCc1nc2c(C)cc(-c3nc4ccccc4n3C)cc2n1Cc1ccc(-c2ccccc2C(=O)O)cc1 [TELMISARTAN],Active
5,CCCc1nc2c(Cl)cccc2n1Cc1ccc(-c2ccccc2C(=O)O)cc1,Active
6,CCCc1nc2ccccc2n1Cc1ccc(-c2ccccc2C(=O)O)cc1,Active
7,CCCc1nc2c(C)cccc2n1Cc1ccc(-c2ccccc2C(=O)O)cc1,Active
8,CCCc1nc2c(Br)cccc2n1Cc1ccc(-c2ccccc2C(=O)O)cc1,Active

# System: K562-IMA[r]
# Assay: Cytotoxicity against imatinib-resistant human K562-IMA[r] cells assessed as induction of cell death at 10 uM after 72 hrs by propidium iodide/Triton-X100 dye based FACS analysis relative to control
# Conditions: not given
row,Structure (SMILES),Activity
1,CCCc1nc2c(C)cccc2n1Cc1ccc(-c2ccccc2C(N)=O)cc1,< 20%

# System: K562-IMA[r]
# Assay: Cytotoxicity against imatinib-resistant human K562-IMA[r] cells assessed as cell death at 10 uM after 72 hrs by propidium iodide/Triton-X100 dye based FACS analysis
# Conditions: not given
row,Structure (SMILES),Activity
1,CCCc1nc2c(F)cccc2n1Cc1ccc(-c2ccccc2C(=O)O)cc1,Non-Toxic
2,CCCc1nc2c(C(F)(F)F)cccc2n1Cc1ccc(-c2ccccc2C(=O)O)cc1,Non-Toxic
3,CCCc1nc2c(OC)cccc2n1Cc1ccc(-c2ccccc2C(N)=O)cc1,Non-Toxic
4,CCCc1nc2c(Cl)cccc2n1Cc1ccc(-c2ccccc2C(=O)O)cc1,Non-Toxic
5,CCCc1nc2ccccc2n1Cc1ccc(-c2ccccc2C(=O)O)cc1,Non-Toxic
6,CCCc1nc2c(C)cccc2n1Cc1ccc(-c2ccccc2C(=O)O)cc1,Non-Toxic
7,CCCc1nc2c(Br)cccc2n1Cc1ccc(-c2ccccc2C(=O)O)cc1,Non-Toxic

# System: K562-IMA[r]
# Assay: Induction of sensitization to imatinib induced cytotoxicity in imatinib-resistant human K562-IMA[r] cells assessed as cell death up to 2.5 uM measured after 72 hrs in presence of 1 uM imatinib by propidium iodide/Triton-X100 dye based FACS analysis
# Assay type: functional
# Conditions: not given
row,Structure (SMILES),Activity
1,CCCc1nc2c(C)cccc2n1Cc1ccc(-c2ccccc2C(N)=O)cc1,inactive

# System: K562-IMA[r]
# Assay: Induction of sensitization to imatinib-induced cytotoxicity in imatinib-resistant human K562-IMA[r] cells assessed as gain in cell death rate at 5 uM measured after 72 hrs in presence of 1 uM imatinib by propidium iodide/Triton-X100 dye based FACS analysis relative to imatinib-treated control
# Assay type: functional
# Conditions: not given
row,Structure (SMILES),Activity
1,CCCc1nc2c(C)cccc2n1Cc1ccc(-c2ccccc2C(N)=O)cc1,11.2%

# System: not listed separately
# Assay: Cytotoxicity against human HS5 cells assessed as cell death at 10 uM after 72 hrs by propidium iodide/Triton-X100 dye based FACS analysis
# Conditions: not given
row,Structure (SMILES),Activity
1,CCCc1nc2c(F)cccc2n1Cc1ccc(-c2ccccc2C(=O)O)cc1,Non-Toxic
2,CCCc1nc2c(C(F)(F)F)cccc2n1Cc1ccc(-c2ccccc2C(=O)O)cc1,Non-Toxic
3,CCCc1nc2c(OC)cccc2n1Cc1ccc(-c2ccccc2C(N)=O)cc1,Non-Toxic
4,CCCc1nc2c(C)cccc2n1Cc1ccc(-c2ccccc2C(N)=O)cc1,Non-Toxic
5,CCCc1nc2c(Cl)cccc2n1Cc1ccc(-c2ccccc2C(=O)O)cc1,Non-Toxic
6,CCCc1nc2ccccc2n1Cc1ccc(-c2ccccc2C(=O)O)cc1,Non-Toxic
7,CCCc1nc2c(C)cccc2n1Cc1ccc(-c2ccccc2C(=O)O)cc1,Non-Toxic
8,CCCc1nc2c(Br)cccc2n1Cc1ccc(-c2ccccc2C(=O)O)cc1,Non-Toxic

# System: K562
# Assay: Cytotoxicity against human K562 cells assessed as cell death at 10 uM after 72 hrs by propidium iodide/Triton-X100 dye based FACS analysis
# Conditions: k562, 72 h
row,Structure (SMILES),Activity
1,CCCc1nc2c(F)cccc2n1Cc1ccc(-c2ccccc2C(=O)O)cc1,Non-Toxic
2,CCCc1nc2c(C(F)(F)F)cccc2n1Cc1ccc(-c2ccccc2C(=O)O)cc1,Non-Toxic
3,CCCc1nc2c(OC)cccc2n1Cc1ccc(-c2ccccc2C(N)=O)cc1,Non-Toxic
4,CCCc1nc2c(C)cccc2n1Cc1ccc(-c2ccccc2C(N)=O)cc1,Non-Toxic
5,CCCc1nc2c(Cl)cccc2n1Cc1ccc(-c2ccccc2C(=O)O)cc1,Non-Toxic
6,CCCc1nc2ccccc2n1Cc1ccc(-c2ccccc2C(=O)O)cc1,Non-Toxic
7,CCCc1nc2c(C)cccc2n1Cc1ccc(-c2ccccc2C(=O)O)cc1,Non-Toxic
8,CCCc1nc2c(Br)cccc2n1Cc1ccc(-c2ccccc2C(=O)O)cc1,Non-Toxic

# System: COS-7
# Assay: Cytotoxicity against African green monkey COS7 cells assessed as effect on cell metabolic activity at 20 uM after 72 hrs by MTT assay
# Assay type: ADME, cell-based
# Conditions: chlorocebus aethiops, cos-7, 72 h
row,Structure (SMILES),Activity
1,CCCc1nc2c(F)cccc2n1Cc1ccc(-c2ccccc2C(=O)O)cc1,Non-Toxic
2,CCCc1nc2c(C(F)(F)F)cccc2n1Cc1ccc(-c2ccccc2C(=O)O)cc1,Non-Toxic
3,CCCc1nc2c(OC)cccc2n1Cc1ccc(-c2ccccc2C(N)=O)cc1,Non-Toxic
4,CCCc1nc2c(C)cccc2n1Cc1ccc(-c2ccccc2C(N)=O)cc1,Non-Toxic
5,CCCc1nc2c(Cl)cccc2n1Cc1ccc(-c2ccccc2C(=O)O)cc1,Non-Toxic
6,CCCc1nc2ccccc2n1Cc1ccc(-c2ccccc2C(=O)O)cc1,Non-Toxic
7,CCCc1nc2c(C)cccc2n1Cc1ccc(-c2ccccc2C(=O)O)cc1,Non-Toxic
8,CCCc1nc2c(Br)cccc2n1Cc1ccc(-c2ccccc2C(=O)O)cc1,Non-Toxic

# Target: T2, Peroxisome proliferator-activated receptor gamma (Homo sapiens)
# Assay: Transactivation of Gal4-fused human PPARgamma transfected in COS7 cells co-transfected with pGAL5-TK-pGL3 and pRennilla-CMV at 20 uM incubated for 39 hrs by dual luciferase reporter assay
# Assay type: cell-based
# Conditions: not given
row,Structure (SMILES),Activity
1,CCCc1nc2c(F)cccc2n1Cc1ccc(-c2ccccc2C(=O)O)cc1,Active
2,CCCc1nc2c(Cl)cccc2n1Cc1ccc(-c2ccccc2C(=O)O)cc1,Active
3,CCCc1nc2ccccc2n1Cc1ccc(-c2ccccc2C(=O)O)cc1,Active
4,CCCc1nc2c(Br)cccc2n1Cc1ccc(-c2ccccc2C(=O)O)cc1,Active

# System: K562-IMA[r]
# Assay: Induction of sensitization to imatinib-induced cytotoxicity in imatinib-resistant human K562-IMA[r] cells assessed as induction of cell death at 10 uM after 72 hrs in presence of 1 uM imatinib by propidium iodide/Triton-X100 dye based FACS analysis (reference value: 15%)
# Assay type: functional
# Conditions: not given
row,Structure (SMILES),Activity
1,CCCc1nc2c(C)cccc2n1Cc1ccc(-c2ccccc2C(N)=O)cc1,62 - 78%

# System: K562-IMA[r]
# Assay: Induction of sensitization to imatinib-induced cytotoxicity in imatinib-resistant human K562-IMA[r] cells assessed as induction of cell death measured after 72 hrs in presence of 1 uM imatinib by propidium iodide/Triton-X100 dye based FACS analysis
# Assay type: functional
# Conditions: not given
row,Structure (SMILES),Activity
1,CCCc1nc2c(C)cccc2n1Cc1ccc(-c2ccccc2C(N)=O)cc1,Dose-dependent effect

# System: not listed separately
# Assay: Solubility of compound in DMSO at 10 uM by microscopic analysis
# Assay type: physicochemical
# Conditions: not given
row,Structure (SMILES),solubility
1,CCCc1nc2c(F)cccc2n1Cc1ccc(-c2ccccc2C(=O)O)cc1,Soluble
2,CCCc1nc2c(C(F)(F)F)cccc2n1Cc1ccc(-c2ccccc2C(=O)O)cc1,Soluble
3,CCCc1nc2c(OC)cccc2n1Cc1ccc(-c2ccccc2C(N)=O)cc1,Soluble
4,CCCc1nc2c(C)cccc2n1Cc1ccc(-c2ccccc2C(N)=O)cc1,Soluble
5,CCCc1nc2c(Cl)cccc2n1Cc1ccc(-c2ccccc2C(=O)O)cc1,Soluble
6,CCCc1nc2ccccc2n1Cc1ccc(-c2ccccc2C(=O)O)cc1,Soluble
7,CCCc1nc2c(C)cccc2n1Cc1ccc(-c2ccccc2C(=O)O)cc1,Soluble
8,CCCc1nc2c(Br)cccc2n1Cc1ccc(-c2ccccc2C(=O)O)cc1,Soluble

# — ChEMBL document CHEMBL4373734, “Overcoming imatinib resistance in chronic myelogenous leukemia cells using non-cytotoxic cell death modulators” (Eur J Med Chem, 2020)
